According to paper PMC6979384, “Characterization of the plant homeodomain (PHD) reader family for their histone tail interactions” (Epigenetics & Chromatin, 2020):

Experiments:
Test in all cases: Histone peptide microarray
Format in all cases: binding, human
PHF21A = conditions: PHF21A, GST-tagged; arrays performed twice, n of 4
Description: (§1) To more comprehensively define the histone interactions of the 31 PHD readers identified from the domain microarray analyses, we probed each on an alternate microarray platform containing a library of 293 synthetic histone peptides with single or combinatorial PTMs (Additional file 2: Figure S4 and Additional file 3: Table S2).
(§2) The 31 GST-tagged PHD readers identified in the PHD finger domain array were expressed and purified as previously. Histone peptide arrays and peptide pulldown assays were conducted as recently described (specifically, the optimized protocol from Petell et al. for the former).
(§3) Supplementary file 13072_2020_328_MOESM3_ESM.xlsx: Additional file 3: Table S2. […] Excel Tab Peptide List is a compiled list of the entire 293 histone peptide library with amino acid sequence ranges. […] Each number corresponds to the peptide number designated in Peptide List. Excel Tab Average Signals is a compiled set of binding data: chromatin reader at 0.5 μM vs. entire 293 peptide library. Data is presented as the average and standard deviation of 4 replicates. The average signals are colored to indicate signal intensity with green being strong and white being weak/low. […] Key: red= stronger relative binding; blue = weaker relative binding. Excel Tab Array info summary is a table summarizing the domains, sequence coverage, array signal range, and noise for each of the GST-tagged readers assayed on the peptide microarrays.

TRIM66 (PB) = conditions: TRIM66 (PB), GST-tagged; arrays performed twice, n of 4
Description: as §1, §2, §3

MORC3 (CW) = conditions: MORC3 (CW), GST-tagged; arrays performed twice, n of 4
Description: as §1, §2, §3

PHF8 = conditions: PHF8, GST-tagged; arrays performed twice, n of 4
Description: as §1, §2, §3

DIDO1 = conditions: DIDO1, GST-tagged; arrays performed twice, n of 4
Description: as §1, §2, §3

TAF3 = conditions: TAF3, GST-tagged; arrays performed twice, n of 4
Description: as §1, §2, §3

BPTF (PB) = conditions: BPTF (PB), GST-tagged; arrays performed twice, n of 4
Description: as §1, §2, §3

PHF13 = conditions: PHF13, GST-tagged; arrays performed twice, n of 4
Description: as §1, §2, §3

AIRE (PP) = conditions: AIRE (PP), GST-tagged; arrays performed twice, n of 4
Description: as §1, §2, §3

ING4 = conditions: ING4, GST-tagged; arrays performed twice, n of 4
Description: as §1, §2, §3

PHRF1 (RP) = conditions: PHRF1 (RP), GST-tagged; arrays performed twice, n of 4
Description: as §1, §2, §3

CHD5 (PPCC) = conditions: CHD5 (PPCC), GST-tagged; arrays performed twice, n of 4
Description: as §1, §2, §3

ING3 = conditions: ING3, GST-tagged; arrays performed twice, n of 4
Description: as §1, §2, §3

CHD5 (PCC) = conditions: CHD5 (PCC), GST-tagged; arrays performed twice, n of 4
Description: as §1, §2, §3

ING1 = conditions: ING1, GST-tagged; arrays performed twice, n of 4
Description: as §1, §2, §3

ING2 = conditions: ING2, GST-tagged; arrays performed twice, n of 4
Description: as §1, §2, §3

RAG2 = conditions: RAG2, GST-tagged; arrays performed twice, n of 4
Description: as §1, §2, §3

KDM7A = conditions: KDM7A, GST-tagged; arrays performed twice, n of 4
Description: as §1, §2, §3

CHD4 (PPCC) = conditions: CHD4 (PPCC), GST-tagged; arrays performed twice, n of 4
Description: as §1, §2, §3

KDM4C (TTP) = conditions: KDM4C (TTP), GST-tagged; arrays performed twice, n of 4
Description: as §1, §2, §3

KDM5B (3) = conditions: KDM5B (3), GST-tagged; arrays performed twice, n of 4
Description: as §1, §2, §3

SP140L = conditions: SP140L, GST-tagged; arrays performed twice, n of 4
Description: as §1, §2, §3

ING5 = conditions: ING5, GST-tagged; arrays performed twice, n of 4
Description: as §1, §2, §3

PHF23 = conditions: PHF23, GST-tagged; arrays performed twice, n of 4
Description: as §1, §2, §3

KDM5A (3) = conditions: KDM5A (3), GST-tagged; arrays performed twice, n of 4
Description: as §1, §2, §3

KDM5A (1) = conditions: KDM5A (1), GST-tagged; arrays performed twice, n of 4
Description: as §1, §2, §3

DPF2 (PPC2W2) = conditions: DPF2 (PPC2W2), GST-tagged; arrays performed twice, n of 4
Description: as §1, §2, §3

MLL5 = conditions: MLL5, GST-tagged; arrays performed twice, n of 4
Description: as §1, §2, §3

PHF2 = conditions: PHF2, GST-tagged; arrays performed twice, n of 4
Description: as §1, §2, §3

BAZ2B = conditions: BAZ2B, GST-tagged; arrays performed twice, n of 4
Description: as §1, §2, §3

| Substance | Array Heatmap value (peptide array binding signal) (PHF21A) | Array Heatmap value (peptide array binding signal) (TRIM66 (PB)) | Array Heatmap value (peptide array binding signal) (MORC3 (CW)) | Array Heatmap value (peptide array binding signal) (PHF8) | Array Heatmap value (peptide array binding signal) (DIDO1) | Array Heatmap value (peptide array binding signal) (TAF3) | Array Heatmap value (peptide array binding signal) (BPTF (PB)) | Array Heatmap value (peptide array binding signal) (PHF13) | Array Heatmap value (peptide array binding signal) (AIRE (PP)) | Array Heatmap value (peptide array binding signal) (ING4) | Array Heatmap value (peptide array binding signal) (PHRF1 (RP)) | Array Heatmap value (peptide array binding signal) (CHD5 (PPCC)) | Array Heatmap value (peptide array binding signal) (ING3) | Array Heatmap value (peptide array binding signal) (CHD5 (PCC)) | Array Heatmap value (peptide array binding signal) (ING1) | Array Heatmap value (peptide array binding signal) (ING2) | Array Heatmap value (peptide array binding signal) (RAG2) | Array Heatmap value (peptide array binding signal) (KDM7A) | Array Heatmap value (peptide array binding signal) (CHD4 (PPCC)) | Array Heatmap value (peptide array binding signal) (KDM4C (TTP)) | also measured |
| --- | --- | --- | --- | --- | --- | --- | --- | --- | --- | --- | --- | --- | --- | --- | --- | --- | --- | --- | --- | --- | --- |
| H4K5ac + K16ac: H4 1-23 | 0.4348 | 0.5396 | 0.3384 | 0.3305 | 0.6124 | 0.2655 | 0.3372 | 0.5774 | 0.4583 | 0.4436 | 0.4298 | 0.5427 | 0.4411 | 0.7385 | 0.5084 | 0.5823 | 0.2387 | 0.3523 | 0.5383 | 0.5082 | Array Heatmap value (peptide array binding signal) (KDM5B (3)): 0.4611; Array Heatmap value (peptide array binding signal) (SP140L): 0.3592; Array Heatmap value (peptide array binding signal) (ING5): 0.3563; Array Heatmap value (peptide array binding signal) (PHF23): 0.509; Array Heatmap value (peptide array binding signal) (KDM5A (3)): 0.4193; Array Heatmap value (peptide array binding signal) (KDM5A (1)): 0.4676; Array Heatmap value (peptide array binding signal) (DPF2 (PPC2W2)): 0.6547; Array Heatmap value (peptide array binding signal) (MLL5): 0.5139; Array Heatmap value (peptide array binding signal) (PHF2): 0.425; Array Heatmap value (peptide array binding signal) (BAZ2B): 0.4504 |
| H4K5me1 + K8ac + K12me1: H4 1-23 | 0.4816 | 0.6387 | 0.3838 | 0.3528 | 0.8611 | 0.2843 | 0.368 | 0.6435 | 0.4591 | 0.4694 | 0.4574 | 0.5643 | 0.4924 | 0.7798 | 0.5678 | 0.626 | 0.2728 | 0.3765 | 0.6142 | 0.4942 | Array Heatmap value (peptide array binding signal) (KDM5B (3)): 0.5017; Array Heatmap value (peptide array binding signal) (SP140L): 0.3553; Array Heatmap value (peptide array binding signal) (ING5): 0.3748; Array Heatmap value (peptide array binding signal) (PHF23): 0.5681; Array Heatmap value (peptide array binding signal) (KDM5A (3)): 0.4387; Array Heatmap value (peptide array binding signal) (KDM5A (1)): 0.4746; Array Heatmap value (peptide array binding signal) (DPF2 (PPC2W2)): 0.687; Array Heatmap value (peptide array binding signal) (MLL5): 0.5981; Array Heatmap value (peptide array binding signal) (PHF2): 0.5535; Array Heatmap value (peptide array binding signal) (BAZ2B): 0.4974 |
| H4K5me1 + K8me1 + K12me1: H4 1-23 | 0.4789 | 0.6442 | 0.3716 | 0.35 | 0.7167 | 0.2856 | 0.3553 | 0.6372 | 0.4682 | 0.4603 | 0.5051 | 0.5726 | 0.4977 | 0.851 | 0.5585 | 0.6061 | 0.2518 | 0.3674 | 0.619 | 0.4976 | Array Heatmap value (peptide array binding signal) (KDM5B (3)): 0.4984; Array Heatmap value (peptide array binding signal) (SP140L): 0.3587; Array Heatmap value (peptide array binding signal) (ING5): 0.3655; Array Heatmap value (peptide array binding signal) (PHF23): 0.5446; Array Heatmap value (peptide array binding signal) (KDM5A (3)): 0.4441; Array Heatmap value (peptide array binding signal) (KDM5A (1)): 0.4935; Array Heatmap value (peptide array binding signal) (DPF2 (PPC2W2)): 0.7329; Array Heatmap value (peptide array binding signal) (MLL5): 0.5583; Array Heatmap value (peptide array binding signal) (PHF2): 0.5422; Array Heatmap value (peptide array binding signal) (BAZ2B): 0.4829 |
| H4K8ac + K12ac + K16ac: H4 1-23 | 0.5044 | 0.6251 | 0.3996 | 0.3768 | 0.7526 | 0.2999 | 0.384 | 0.6695 | 0.4841 | 0.4992 | 0.4693 | 0.614 | 0.5255 | 0.7879 | 0.5851 | 0.6214 | 0.271 | 0.4096 | 0.6125 | 0.5459 | Array Heatmap value (peptide array binding signal) (KDM5B (3)): 0.4821; Array Heatmap value (peptide array binding signal) (SP140L): 0.383; Array Heatmap value (peptide array binding signal) (ING5): 0.3961; Array Heatmap value (peptide array binding signal) (PHF23): 0.5595; Array Heatmap value (peptide array binding signal) (KDM5A (3)): 0.5089; Array Heatmap value (peptide array binding signal) (KDM5A (1)): 0.498; Array Heatmap value (peptide array binding signal) (DPF2 (PPC2W2)): 0.6365; Array Heatmap value (peptide array binding signal) (MLL5): 0.5342; Array Heatmap value (peptide array binding signal) (PHF2): 0.546; Array Heatmap value (peptide array binding signal) (BAZ2B): 0.4965 |
